Among the data in patent publication US20030134859A1 (SANKYO COMPANY, LIMITED, priority 2000, published 2003) are IC50 and EC50 values, retold here.

In test [1] the target is T1, human PPAR γ 2 (Homo sapiens, UniProt P37231).
T1 construct: expressed in transfected cells; host or cells: human osteosarcoma MG63, transiently co-transfected with pSG5-hPPARg and the reporter pGV-P2-PPRE
T1 sequence (P37231 1-505): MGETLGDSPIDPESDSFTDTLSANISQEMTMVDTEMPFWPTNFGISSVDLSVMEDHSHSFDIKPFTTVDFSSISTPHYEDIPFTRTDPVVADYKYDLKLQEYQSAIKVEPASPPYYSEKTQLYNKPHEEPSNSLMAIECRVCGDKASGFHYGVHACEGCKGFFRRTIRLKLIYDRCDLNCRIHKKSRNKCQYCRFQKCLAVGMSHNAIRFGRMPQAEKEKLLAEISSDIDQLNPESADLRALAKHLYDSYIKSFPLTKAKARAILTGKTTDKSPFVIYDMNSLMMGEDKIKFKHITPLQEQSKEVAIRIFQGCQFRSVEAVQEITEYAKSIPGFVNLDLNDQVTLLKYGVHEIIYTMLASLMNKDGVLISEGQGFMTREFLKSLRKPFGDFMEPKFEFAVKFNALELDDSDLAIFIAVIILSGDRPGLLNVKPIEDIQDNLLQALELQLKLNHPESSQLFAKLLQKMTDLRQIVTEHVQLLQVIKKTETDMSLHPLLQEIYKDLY
As to the kind of experiment: Inhibitory activity against PPAR γ transcription in the presence of agonist compound A, luciferase reporter. It is filed as cell-based. The following applies: in the presence of 10 nM compound A (agonist); MG63 cells transfected with pSG5-hPPARg and pGV-P2-PPRE; 24 hr. (In general: Reporter assays use an easily measured gene product as a stand-in for the process of interest.)

Test [2] concerns the target T1, human PPAR γ 2. As to the kind of experiment: PPAR γ transcriptional activity, luciferase reporter, test compound alone. It counts as cell-based. The conditions noted are these: concentration indicating Emax/2, MG63 cells transfected with pSG5-hPPARg and pGV-P2-PPRE, 24 hr. The essentials: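 Human osteosarcoma MG63 cells transiently co-transfected with human PPARγ2 expression plasmid and PPRE-luciferase reporter (rat acyl-CoA oxidase promoter element), then exposed 24 h to test compound alone. Luciferase luminescence gave dose-response curves; EC50 is the concentration giving half of the compound's maximal activity (Emax).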

Counter-ions that a name gives are not always drawn.

The term IC50 denotes the concentration at which inhibition is half-maximal. The term EC50 denotes the midpoint of the concentration-response curve. `Cc1ccccc1-c1csc(NC(=O)c2cc([N+](=O)[O-])ccc2Cl)n1` [Example 39, N-[4-(2-Methylphenyl)thiazol-2-yl]-(2-chloro-5-nitrophenyl)carboxamide]: the IC50 in test [1] was found to be 40 nM. The compound also returned an EC50 in test [2] of 39 nM.

Take `O=C(Nc1nc(-c2cccc3ccccc23)cs1)c1cc([N+](=O)[O-])ccc1Cl` [Example 41, N-[4-(1-Naphthyl)thiazol-2-yl]-(2-chloro-5-nitrophenyl)carboxamide]: the IC50 in test [1] was 77 nM. The EC50 in test [2] was found to be 11 nM.

On to `Cc1ccc(-c2nc(NC(=O)c3cc([N+](=O)[O-])ccc3Cl)sc2C)cc1Cl` [Example 46, N-[4-(3-Chloro-4-methylphenyl)-5-methylthiazol-2-yl]-(2-chloro-5-nitrophenyl)carboxamide], for which the IC50 in test [1] was determined as 54 nM. In test [2], this compound showed an EC50 of 810 nM.

For `Cc1nc(NC(=O)c2cc([N+](=O)[O-])ccc2Cl)sc1C` [Example 47], the IC50 in test [1] amounted to 38 nM. In addition, a half-maximal effect in test [2] (EC50) was put at 420 nM.

Consider `Cc1cccc(NC(=O)c2cc([N+](=O)[O-])ccc2Cl)n1` [Example 51, N-(6-Methylpyridin-2-yl)-(2-chloro-5-nitrophenyl)carboxamide], for which the IC50 in test [1] came to 120 nM. This compound yielded a concentration giving a half-maximal response (EC50) in test [2] of 6.6 nM.

Take `Cc1ccc(NC(=O)c2cc([N+](=O)[O-])ccc2Cl)nc1` [Example 52, N-(5-Methylpyridin-2-yl)-(2-chloro-5-nitrophenyl)carboxamide]: in test [1], the IC50 worked out at 210 nM. Moreover, it took 5.6 nM to reach a half-maximal effect in test [2] (EC50).

Regarding `O=C(Nc1ccc2c3c(cccc13)CC2)c1cc([N+](=O)[O-])ccc1Cl` [Example 54, N-(Acenaphthen-5-yl)-(2-chloro-5-nitrophenyl)carboxamide], the concentration for half-maximal inhibition (IC50) in test [1] came out at 340 nM. In test [2], this compound came in with an EC50 of 4.7 nM.

Consider `Nc1ccc(NC(=O)c2cc([N+](=O)[O-])ccc2Cl)cc1` [Example 58, N-(4-Aminophenyl)-(2-chloro-5-nitrophenyl)carboxamide mono-hydrochloride], for which, in test [1], the IC50 is 2.8 nM. For the same compound, the response in test [2] was half-maximal at 20 nM (EC50).

For the compound `O=C(Nc1c(Cl)ncnc1Cl)c1cc([N+](=O)[O-])ccc1Cl` [Example 81, N-(4,6-Dichloropyrimidin-5-yl)-(2-chloro-5-nitrophenyl)carboxamide], the IC50 in test [1] was 23 nM. In test [2], the EC50 was determined as 760 nM.

For the compound `Cn1c(NC(=O)c2cc([N+](=O)[O-])ccc2Cl)nc2ccccc21` [Example 82, N-(1-Methylbenzimidazol-2-yl)-(2-chloro-5-nitrophenyl)carboxamide], the IC50 in test [1] was 400 nM. This compound also gave an EC50 in test [2] of 260 nM.

As for `O=C(Nc1nncs1)c1cc([N+](=O)[O-])ccc1Cl` [Example 85, N-(1,3,4-Thiadiazol-2-yl)-(2-chloro-5-nitrophenyl)carboxamide], the IC50 in test [1] is 91 nM. The compound also showed an EC50 in test [2] of 28 nM.

Turning to `O=C(Nc1cccc2nsnc12)c1cc([N+](=O)[O-])ccc1Cl` [Example 86, N-(2,1,3-Benzothiazol-4-yl)-(2-chloro-5-nitrophenyl)carboxamide], the IC50 in test [1] amounted to 710 nM. The compound further registered an EC50 in test [2] of 11 nM.

As to `O=C(Nc1ccc(S(=O)(=O)Nc2nccs2)cc1)c1cc([N+](=O)[O-])ccc1Cl` [Example 96, N-[4-(Thiazol-2-yl)aminosulfonyl]phenyl-(2-chloro-5-nitrophenyl)carboxamide], in test [1], the half-inhibitory concentration (IC50) worked out at 650 nM. This compound also had an EC50 in test [2] of 22 nM.

Take `Cc1cc(NS(=O)(=O)c2ccc(NC(=O)c3cc([N+](=O)[O-])ccc3Cl)cc2)no1` [Example 99]: in test [1], the IC50 was 680 nM. Also, the EC50 in test [2] came to 34 nM.

On to `O=C(Nc1ccc(S(=O)(=O)Nc2ccc(Cl)nn2)cc1)c1cc([N+](=O)[O-])ccc1Cl` [Example 102, N-[4-[(6-Chloropyridazin-3-yl)aminosulfonyl]phenyl]-(2-chloro-5-nitrophenyl)carboxamide], for which the IC50 in test [1] came to 490 nM. In test [2], this compound came in with a concentration giving a half-maximal response (EC50) of 43 nM.

For the compound `COc1cnc(NS(=O)(=O)c2ccc(NC(=O)c3cc([N+](=O)[O-])ccc3Cl)cc2)nc1` [Example 105, N-[4-[(5-Methoxypyrimidin-2-yl)aminosulfonyl]phenyl]-(2-chloro-5-nitrophenyl)carboxamide], in test [1], the IC50 is 710 nM. Also, in test [2], a half-maximal response (EC50) required 87 nM.

Regarding `N=C(N)NS(=O)(=O)c1ccc(NC(=O)c2cc([N+](=O)[O-])ccc2Cl)cc1` [Example 106, N-[4-(Amidinoaminosulfonyl)phenyl]-(2-chloro-5-nitrophenyl)carboxamide], the IC50 in test [1] was determined as 360 nM. For the same compound, in test [2], the EC50 was 49 nM.

As to `O=C(Nc1ccc(S(=O)(=O)Nc2ccnn2-c2ccccc2)cc1)c1cc([N+](=O)[O-])ccc1Cl` [Example 108, N-[4-[(2-Phenyl-(2H)-pyrazol-3-yl)aminosulfonyl]phenyl]-(2-chloro-5-nitrophenyl)carboxamide], the IC50 in test [1] is 59 nM. For the same compound, in test [2], the EC50 turned out to be 57 nM.

Consider `O=C(Nc1nnc(-c2ccccc2)s1)c1cc([N+](=O)[O-])ccc1Cl` [Example 110, N-(5-Phenyl-[1,3,4]thiadiazol-2-yl)-(2-chloro-5—nitrophenyl)carboxamide], for which, in test [1], the IC50 was 190 nM. In test [2], this compound yielded an EC50 of 15 nM.

As for `O=C(Nc1nc(-c2ccc(F)c(F)c2)cs1)c1cc([N+](=O)[O-])ccc1Cl` [Example 111, N-[4-(3,4-Difluorophenyl)thiazol-2-yl]-(2-chloro-5-nitrophenyl)carboxamide], in test [1], the IC50 came out at 27 nM. Also, the EC50 in test [2] is 79 nM.

For the compound `Cc1ccc(S(=O)(=O)Nc2ccc(NC(=O)c3cc([N+](=O)[O-])ccc3Cl)cc2)cc1` [Example 116, N-[4-(4-Toluenesulfonylamino)phenyl]-(2-chloro-5-nitrophenyl)carboxamide], the IC50 in test [1] worked out at 55 nM. The compound further came in with an EC50 in test [2] of 11 nM.

On to `CC(=O)Nc1ccc(NC(=O)c2cc([N+](=O)[O-])ccc2Cl)cc1` [Example 117, N-(4-Acetylaminophenyl)-(2-chloro-5-nitrophenyl)carboxamide], for which the concentration for half-maximal inhibition (IC50) in test [1] came out at 120 nM. In test [2], it took 8.7 nM to reach a half-maximal effect (EC50).

In the case of `O=C(Nc1ccc(NC(=O)c2cc([N+](=O)[O-])ccc2Cl)cc1)c1ccccc1` [Example 119, N-(4-Benzoylaminophenyl)-(2-chloro-5-nitrophenyl)carboxamide], the IC50 in test [1] worked out at 36 nM. The compound further displayed an EC50 in test [2] of 21 nM.

For `O=C(Nc1ccc(NC(=O)c2cc([N+](=O)[O-])ccc2Cl)cc1)c1ccncc1` [Example 125, N-[4-(Pyridin-4-ylcarbonylamino)phenyl]-(2-chloro-5-nitrophenyl)carboxamide], in test [1], the IC50 was determined as 240 nM. Besides, the EC50 in test [2] was 19 nM.

For `CCCCCCN(CCCCCC)c1ccc(NC(=O)c2cc([N+](=O)[O-])ccc2Cl)cc1` [Example 138, N-[4-(N,N-di-n-Hexylamino)phenyl]-(2-chloro-5-nitrophenyl)carboxamide], the IC50 in test [1] worked out at 20 nM. A half-maximal effect in test [2] (EC50) was put at 130 nM.

`CC(C)(C)c1cc(C(=O)Nc2ccc(NC(=O)c3cc([N+](=O)[O-])ccc3Cl)cc2)cc(C(C)(C)C)c1O` [Example 157, N-[4-[(3,5-di-tert-Butyl-4-hydroxybenzoyl)amino]phenyl]-(2-chloro-5-nitrophenyl)carboxamide]: the 50% inhibitory concentration (IC50) in test [1] turned out to be 23 nM. Moreover, the response in test [2] was half-maximal at 760 nM (EC50).

As for `CN(C)c1cccc(NC(=O)c2cc([N+](=O)[O-])ccc2Cl)c1` [Example 176, N-(3-Dimethylamino)phenyl-(2-chloro-5-nitrophenyl)carboxamide], the 50% inhibitory concentration (IC50) in test [1] is 66 nM. The compound further yielded an EC50 in test [2] of 11 nM.

As for `O=C(Nc1ccc(S(=O)(=O)Nc2cccnc2)cc1)c1cc([N+](=O)[O-])ccc1Cl` [Example 178], in test [1], the concentration for half-maximal inhibition (IC50) came to 330 nM. For the same compound, the EC50 in test [2] was determined as 16 nM.

Regarding `O=C(Nc1ccc(S(=O)(=O)Nc2ccc(N3CCOCC3)cc2)cc1)c1cc([N+](=O)[O-])ccc1Cl` [Example 179, N-[4-[4-(Morpholin-4-yl)phenyl]aminosulfonyl]phenyl-(2-chloro-5-nitrophenyl)carboxamide], the IC50 in test [1] amounted to 56 nM. Also, a half-maximal response in test [2] (EC50) required 780 nM.

For the compound `CCCNc1ccc(NC(=O)c2cc([N+](=O)[O-])ccc2Cl)cc1` [Example 181, N-[4-(N-Propylamino)phenyl]-(2-chloro-5-nitrophenyl)carboxamide], the IC50 in test [1] came out at 20 nM. In test [2], this compound had an EC50 of 5.6 nM.

With `CCCN(CC)c1ccc(NC(=O)c2cc([N+](=O)[O-])ccc2Cl)cc1` [Example 189, N-[4-(N-Ethyl-N-propylamino)phenyl]-(2-chloro-5-nitrophenyl)carboxamide], the IC50 in test [1] turned out to be 3.6 nM. A half-maximal effect in test [2] (EC50) was put at 0.7 nM.

As to `O=C(Nc1cccc(O)c1)c1cc([N+](=O)[O-])ccc1Cl` [Example 191, N-(3-Hydroxyphenyl)-(2-chloro-5-nitrophenyl)carboxamide], the IC50 in test [1] amounted to 30 nM. This compound showed an EC50 in test [2] of 4.2 nM.
